6 molecules from article PMC7504466, “In-Vitro and In-Silico Evaluations of Heterocyclic-Containing Diarylpentanoids as Bcl-2 Inhibitors Against LoVo Colorectal Cancer Cells” (Molecules, 2020) can be followed below.

One data set concerns HT29 cells. Briefly: MTT cytotoxicity assay, HT29 cells. In kind it is cell-based. The following applies: Homo sapiens, HT-29, 72 h post-treatment, read-out: IC50 (µM) BRAF HT29. The procedure:
(§1) The in-vitro cytotoxic activity of the synthesized compounds on seven human CRC cell lines including KRAS (T84, SW620, LoVo) and BRAF (HT29, NCI-H508, RKO and LS411N) mutated cells were determined by MTT assay as previously described. The IC50 values obtained are summarized in Table 2 in which 5-FU and normal human dermal fibroblasts (NHDF) were used as controls. Meanwhile, a heatmap (Figure 3) was also generated using GraphPad Prism v7.0 (GraphPad Software, La Jolla, CA, USA) to visualize the cytotoxic trends of synthesized compounds graphically.
(§2) A panel of KRAS (T84, SW620 and LoVo) and BRAF (HT29, NCI-H508, RKO and LS411N) mutated human CRC cell lines were grown in Dulbecco’s modified Eagle’s medium (DMEM) containing 10% fetal bovine serum (FBS) and 1% penicillin/streptomycin at 37 °C under 5% CO2 while NHDF cells were cultured in DMEM with 5% FBS under the same condition. The culture medium was replenished every two days until the cells reached 80–90% confluency for further usage. All cell lines (T84, ATCC®CCL-248™; SW620, ATCC®CCL-227™; LoVo, ATCC®CCL-229™; HT-29, ATCC®HTB-38; NCI-H508, ATCC®CCL-253™; RKO, ATCC®CRL-2577; LS411N, ATCC®CRL-2159; NHDF, ATCC® PCS-201-010™) were purchased from American Type culture Collections (ATCC, Manassas, VA, USA).
(§3) LoVo cells (1.5–5 × 10^3 cells/well) were seeded into a 96 well plate and incubated at 37 °C and 5% CO2 atmosphere for 24 h. On the following day, the cell media were replaced with 100 µL of test compounds at various concentration. The final concentration of DMSO in the well is 0.1%. After 72 h of incubation, culture medium was removed and 100 µL of MTT (thiazoyl blue tertrazolium bromide) solution (0.5 mg/mL in culture media) was added. The resultant plates were then further incubated at 37 °C for 4 h. Upon completion, the MTT solution was removed and the formazan salts formed were dissolved in 100 µL of DMSO. The absorbance was recorded with a microplate reader at 570 nm. The IC50 values of tested compounds were calculated from three independent experiments.
A general note: Tetrazolium dyes change colour on reduction, which living cells bring about.

Data set [1] has as its system normal human dermal fibroblasts (NHDF). Put plainly: MTT cytotoxicity assay, normal human dermal fibroblasts. The settings on record: 72 h post-treatment. In kind it is cell-based. The procedure:
as §1, §2, §3

For the next data set, the system named is NCI-H508 cells. Put plainly: MTT cytotoxicity assay, NCI-H508 cells. The following applies: Homo sapiens, 72 h post-treatment, read-out: IC50 (µM) BRAF NCI-H508. In kind it is cell-based. The procedure:
as §1, §2, §3

For a further data set, the system named is SW620 cells. Briefly: MTT cytotoxicity assay, SW620 cells. In kind it is cell-based. The settings on record: Homo sapiens, SW-620, 72 h post-treatment, read-out: IC50 (µM) KRAS SW620. As for the experimental part:
as §1, §2, §3

The next data set has as its system LS411N cells. Briefly: MTT cytotoxicity assay, LS411N cells. In kind it is cell-based. The following applies: Homo sapiens, LS-411N, 72 h post-treatment, read-out: IC50 (µM) BRAF LS411N. As for the experimental part:
as §1, §2, §3

The subject of the next data set is T84 cells. Briefly: MTT cytotoxicity assay, T84 cells. The following applies: Homo sapiens, 72 h post-treatment, read-out: IC50 (µM) KRAS T84. The class given is cell-based. The procedure:
as §1, §2, §3

Another data set deals with RKO cells. Briefly: MTT cytotoxicity assay, RKO cells. In kind it is cell-based. The following applies: Homo sapiens, 72 h post-treatment, read-out: IC50 (µM) BRAF RKO. The procedure: as §1, §2, §3
For the next data set, the system named is LoVo cells. Put plainly: MTT cytotoxicity assay, LoVo cells. The class given is cell-based. The settings on record: Homo sapiens, 72 h post-treatment, read-out: IC50 (µM) KRAS LoVo. The procedure: as §1, §2, §3
Data set [2] relates to human CRC cell lines (T84, SW620, LoVo, HT29, NCI-H508, RKO, LS411N). Put plainly: MTT cytotoxicity assay, panel of KRAS- and BRAF-mutated CRC cell lines. In kind it is cell-based. The following applies: several CRC cell lines, read-out: IC50 against several CRC cell lines. As for the experimental part:
as §1
A panel of KRAS (T84, SW620 and LoVo) and BRAF (HT29, NCI-H508, RKO and LS411N) mutated human CRC cell lines were grown in Dulbecco’s modified Eagle’s medium (DMEM) containing 10% fetal bovine serum (FBS) and 1% penicillin/streptomycin at 37 °C under 5% CO2 while NHDF cells were cultured in DMEM with 5% FBS under the same condition. The culture medium was replenished every two days until the cells reached 80–90% confluency for further usage. […]
LoVo cells (1.5–5 × 10^3 cells/well) were seeded into a 96 well plate and incubated at 37 °C and 5% CO2 atmosphere for 24 h. […] The absorbance was recorded with a microplate reader at 570 nm. The IC50 values of tested compounds were calculated from three independent experiments.

Each structure is given as a SMILES string.

The term IC50 denotes the concentration that inhibits the measured activity by half. Turning to `COc1ccccc1C=C1CCCC(=Cc2ccccc2OC)C1=O` [Compound 2a, 2,6-Bis(2-methoxybenzylidene)cyclohexanone], the IC50 in the data set on HT29 cells was over 10 µM; in data set [1], over 20 µM; with NCI-H508 cells, over 10 µM; in the data set with SW620 cells, over 10 µM; in the data set with LS411N cells it was over 10 µM; in the data set with T84 cells it was over 10 µM. Besides, the IC50 in the data set with RKO cells and with LoVo cells was over 10 µM throughout.

Consider `O=C1C(=Cc2ccccc2Br)CCCC1=Cc1ccccc1Br` [Compound 2b, 2,6-Bis(2-bromobenzylidene)cyclohexanone], for which the IC50 in the data set on HT29 cells was over 10 µM; in [1], over 20 µM; in the data set on NCI-H508 cells it was 7.8 µM; in the data set on SW620 cells it was 8.9 µM; in the data set with LS411N cells, over 10 µM; in the data set with T84 cells, over 10 µM. For the same molecule, the IC50 in the data set on RKO cells and with LoVo cells was over 10 µM each time.

As a reminder, the melting point is the temperature of the solid-liquid transition. Consider `O=C1C(=Cc2ccc(F)c(F)c2)CCCC1=Cc1ccc(F)c(F)c1` [Compound 2c, 2,6-Bis(3,4-difluorobenzylidene)cyclohexanone], for which the melting point was in the range of 90 to 91 °C. Also, the IC50 with HT29 cells amounted to 5.4 µM. The IC50 in [1] is 12.9 µM. Further, the concentration for half-maximal inhibition (IC50) with NCI-H508 cells was 3.3 µM. Also, in the data set with SW620 cells, the IC50 stood at 3.2 µM. In addition, in the data set on LS411N cells, the IC50 was 3.7 µM. Besides, the IC50 in the data set with T84 cells came to 3.3 µM. Besides, in the data set with RKO cells, the concentration for half-maximal inhibition (IC50) came out at 2.6 µM. For the same molecule, in the data set with LoVo cells, the IC50 amounted to 3.3 µM.

Molecule `COc1ccccc1C=C1CSCC(=Cc2ccccc2OC)C1=O` [Compound 2d, 3,5-Bis(2-methoxybenzylidene)tetrahydro-4H-thiopyran-4-one] gave a melting point of 120 to 121 °C. Further, the IC50 with HT29 cells was over 10 µM. In [1], this molecule displayed an IC50 of 9.7 µM. In addition, the half-maximal inhibitory concentration (IC50) with NCI-H508 cells stood at 5.3 µM. For the same molecule, the IC50 in the data set with SW620 cells was over 10 µM. For the same molecule, in the data set with LS411N cells, the IC50 worked out at 5.8 µM. Further, the IC50 with T84 cells is over 10 µM. Besides, the IC50 with RKO cells was 7.1 µM. Further, the IC50 in the data set with LoVo cells turned out to be 6.9 µM.

For the molecule `O=C1C(=Cc2ccc(F)c(F)c2)CSCC1=Cc1ccc(F)c(F)c1` [Compound 2f, 3,5-Bis(3,4-difluorobenzylidene)tetrahydro-4H-thiopyran-4-one], the IC50 was over 10 µM with HT29 cells; 2 µM in data set [1]; 2.4 to 6.2 µM in data set [2]; 6.2 µM in the data set on NCI-H508 cells; 2.9 µM in the data set with SW620 cells; 5.9 µM with LS411N cells. Moreover, the IC50 with T84 cells is over 10 µM; in the data set with RKO cells, 2.4 µM; in the data set on LoVo cells, 5.1 µM.

For `O=c1[nH]cc(F)c(=O)[nH]1` [Compound 5-FU, 5-fluorouracil, reference compound], the IC50 is over 10 µM with HT29 cells; over 20 µM in [1]; 8.6 µM in the data set with NCI-H508 cells; over 10 µM in the data set on SW620 cells; 4.6 µM with LS411N cells; over 10 µM with T84 cells. Further, the IC50 in the data set on RKO cells was 2.9 µM; with LoVo cells, 3.3 µM.
